Measured values: PMC5268383, “Inhibition of STAT3 by Anticancer Drug Bendamustine” (PLoS ONE, 2017)
pIC50: −log10 of the molar value.

Columns and labels:
[1] = biological target: T1, STAT3-CFP / STAT3-YFP in HEK293 cells (Homo sapiens, UniProt P40763); assay: FRET assay of STAT3 dimerization; assay type: cell-based; conditions: HEK293, 10, 20 or 50 μM, pretreatment before 50 ng/mL IL-6 stimulation
T1 construct: expressed in transfected cells; host or cells: HEK293
Description: The expression vectors for the fusion proteins STAT3-CFP and STAT3-YFP were prepared by the addition of STAT3 cDNA to pAmCyan1-N1 and pZsyellow1-N1. The vector mixture (1:1) was transfected into HEK293 cells with Lipofectamine 2000. The cells were cultured with 2% FBS DMEM for 48 h in a 96-well microtiter plate, treated with 0, 10, 20, or 50 μM BENDA or HP2 in a final DMSO concentration of 0.2% for 24 h, and then stimulated with 50 ng/mL IL-6 for a further 1 h. Fluorescence signals were measured (SpectraMax M5SK). The signals measured by FRET (excitation/emission: 436/528 nm) were corrected for crosstalk signals from cyan (excitation/emission: 436/488 nm) and yellow (excitation/emission: 517/528 nm).

[2] = system: MDA-MB-453 cells (low P-STAT3); assay: WST cell proliferation assay, MDA-MB-453; assay type: cell-based, human; conditions: 0.1-100 μM, 48 h, WST-8
Description: (§1) Cells were plated in a 96-well tissue culture plate (1000 cells per well) and incubated for 48 h. After incubation, the cells were treated with vehicle, 0.1–100 μM BENDA, or HP2 for 48 h. Samples were assayed in triplicate. After incubation, WST-8 solution (10 μL; Dojindo Molecular Technologies, Rockville, MD, USA) was added to each well and incubated at 37°C for 4 h, and the absorbance was read at 450 nm.

[3] = system: MDA-MB-468 cells (high P-STAT3); assay: WST cell proliferation assay, MDA-MB-468; assay type: cell-based, human; conditions: 0.1-100 μM, 48 h, WST-8
Description: as §1

[4] = biological target: T2, recombinant human STAT3 SH2 domain (Homo sapiens, UniProt P40763); assay: AlphaScreen SH2 binding assay, STAT3; conditions: AlphaScreen, 50 nM protein, FITC-GpYLPQTV; read-out: IC50, inhibition of STAT3-SH2 binding to phosphotyrosine peptide
T2 construct: Full-length cDNAs were obtained from a human cDNA library by PCR; Avi-tag (biotinylated in BirA-BL21) (N); made in house; host or cells: Escherichia coli BirA-BL21
T2 sequence (P40763 whole entry, the tested form may be a part): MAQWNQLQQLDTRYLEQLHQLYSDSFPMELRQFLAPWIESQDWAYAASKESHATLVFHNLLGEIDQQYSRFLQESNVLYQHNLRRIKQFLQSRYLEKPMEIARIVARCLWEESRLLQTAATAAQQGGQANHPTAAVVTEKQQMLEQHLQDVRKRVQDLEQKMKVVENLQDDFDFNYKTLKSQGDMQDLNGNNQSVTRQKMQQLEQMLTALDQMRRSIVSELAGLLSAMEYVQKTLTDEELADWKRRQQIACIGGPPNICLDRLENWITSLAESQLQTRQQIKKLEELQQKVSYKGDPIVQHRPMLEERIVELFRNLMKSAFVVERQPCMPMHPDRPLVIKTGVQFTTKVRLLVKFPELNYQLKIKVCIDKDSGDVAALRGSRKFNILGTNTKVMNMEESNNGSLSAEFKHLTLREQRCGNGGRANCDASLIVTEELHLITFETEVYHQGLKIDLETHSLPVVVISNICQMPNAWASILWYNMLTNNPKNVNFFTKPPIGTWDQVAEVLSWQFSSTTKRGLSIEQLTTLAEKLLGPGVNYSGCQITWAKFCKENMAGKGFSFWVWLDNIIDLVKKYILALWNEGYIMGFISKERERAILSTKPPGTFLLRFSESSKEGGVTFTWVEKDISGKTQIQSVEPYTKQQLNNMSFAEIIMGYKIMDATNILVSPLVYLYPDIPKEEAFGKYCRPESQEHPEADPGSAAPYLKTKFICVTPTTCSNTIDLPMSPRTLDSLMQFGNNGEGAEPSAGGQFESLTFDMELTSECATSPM
Description: AlphaScreen assays were performed in a final reaction volume of 25 μL of the assay buffer, containing 10 mM HEPES-NaOH (pH 7.4), 50 mM NaCl, 1 mM EDTA (pH 8.0), 0.1% NP-40, and 10 ng/mL BSA in a 96-well microtiter plate at 25°C. The labeled Phospho-Tyr (pTyr) peptide probe was 5-carboxyfluorescein (FITC)-GpYLPQTV for STAT3, FITC-GpYDKPHVL for STAT1, and FITC-PSpYVNVQN for Grb2. A DMSO solution of BENDA was incubated with 50 nM of each SH2-containing protein for 15 min, 50 nM of the corresponding FITC-pTyr peptide was added, and the mixture was incubated for 90 min. Streptavidin-coated donor beads and anti-FITC acceptor beads were added and incubated for 90 min before the signals were measured with an Envision Xcite plate reader (PerkinElmer Life Sciences, Waltham, MA, USA).

[5] = biological target: T3, nuclear STAT3 of MDA-MB-468 cells (Homo sapiens, UniProt P40763); assay: STAT3 DNA binding assay (TransAM ELISA); assay type: cell-based; conditions: MDA-MB-468, 24 h; BENDA 25, 50, 100 μM, HP2 100 μM
T3 construct: endogenous in cells; host or cells: MDA-MB-468
T3 sequence (P40763 2-770 limits assumed): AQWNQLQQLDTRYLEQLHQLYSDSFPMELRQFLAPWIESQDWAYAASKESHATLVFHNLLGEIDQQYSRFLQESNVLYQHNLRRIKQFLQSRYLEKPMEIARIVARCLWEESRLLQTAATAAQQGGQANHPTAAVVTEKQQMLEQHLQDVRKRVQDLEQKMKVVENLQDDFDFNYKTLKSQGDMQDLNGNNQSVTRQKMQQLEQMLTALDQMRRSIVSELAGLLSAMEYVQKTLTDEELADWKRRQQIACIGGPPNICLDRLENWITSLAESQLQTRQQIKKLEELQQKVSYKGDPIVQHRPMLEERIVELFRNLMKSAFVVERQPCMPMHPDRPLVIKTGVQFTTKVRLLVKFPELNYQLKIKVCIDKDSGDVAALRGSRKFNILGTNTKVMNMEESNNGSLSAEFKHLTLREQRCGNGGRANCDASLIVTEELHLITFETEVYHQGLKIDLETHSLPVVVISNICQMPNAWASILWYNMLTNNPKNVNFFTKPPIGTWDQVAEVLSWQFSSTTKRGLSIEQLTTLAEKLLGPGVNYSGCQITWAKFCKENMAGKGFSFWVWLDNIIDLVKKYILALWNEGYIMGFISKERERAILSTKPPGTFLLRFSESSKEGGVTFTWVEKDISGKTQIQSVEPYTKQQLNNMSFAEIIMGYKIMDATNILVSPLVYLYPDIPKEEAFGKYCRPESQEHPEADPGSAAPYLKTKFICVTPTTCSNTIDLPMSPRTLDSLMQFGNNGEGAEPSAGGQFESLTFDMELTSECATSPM
Description: The DNA-binding activity of STAT3 was evaluated with a TransAM ELISA kit (Active Motif, Carlsbad, CA, USA). The assay and nuclear extract preparation were performed according to the manufacturer’s instructions. Heat-denatured nuclear extract was used as a negative control. The nuclear extract (20 μg) was added to each well of a 96-well microtiter plate coated with immobilized oligonucleotides containing the STAT3 consensus binding site and incubated at room temperature for 1 h. They were incubated with anti-STAT3 antibody for 1 h at room temperature, followed by HRP-conjugated antibody for 1 h at room temperature. The developing solution was added, the reaction was terminated by the addition of stop solution, and the absorbance was measured at 450 nm with a reference wavelength of 655 nm (SpectraMax M5SK, Molecular Devices, Sunnyvale, CA, USA).

[6] = biological target: T4, STAT3-DNA complex (c-myc promoter) in MDA-MB-468 cells (Homo sapiens, UniProt P40763); assay: ChIP assay, c-myc promoter binding by STAT3; assay type: cell-based; conditions: MDA-MB-468, 8 h; BENDA 25, 50, 100 μM, HP2 50, 100 μM
T4 construct: endogenous in cells; host or cells: MDA-MB-468
T4 sequence (P40763 2-770 limits assumed, one chain of several): as the sequence (P40763 2-770 limits assumed) above
Description: A ChIP assay was performed with an ExactaChIP Human/Mouse STAT3 ChIP kit (R&D Systems, Minneapolis, MN, USA). MDA-MB-468 cancer cells were fixed with 1% formaldehyde and treated with the lysis buffer. After sonication, anti-STAT3 antibody or normal mouse IgG was added to the extract, followed by precipitation with Protein G Plus/Protein A Agarose Suspension. The eluted DNA fraction was used for PCR with human c-myc primers.

rhSTAT3 = biological target: T5, rhSTAT3 (Homo sapiens, UniProt P40763); assay: Competition assay with cysteine-blocking reagent Alexa Fluor 488 C5 maleimide; assay type: binding; conditions: 50 or 100 μM compound, 2 h
T5 construct: Full-length cDNAs were obtained from a human cDNA library by PCR; Avi-tag (biotinylated in BirA-BL21) (N); made in house; host or cells: Escherichia coli BirA-BL21
T5 sequence (P40763 whole entry): as the sequence (P40763 whole entry, the tested form may be a part) above
Description: rhSTAT3 (0.89 μM) in 100 mM HEPES was incubated with 10 μM Alexa Fluor 488 C5 maleimide (Invitrogen, Paisley, UK), a thiol-reactive probe, in the presence or absence of 50 or 100 μM BENDA or HP2 for 2 h at room temperature. Samples were diluted in SDS-PAGE sample buffer without boiling or 2-mercaptoethanol and run on an SDS-PAGE gel. The protein was transferred to a nitrocellulose membrane and then blotted with Ni-HRP. The Alexa-labeled rhSTAT3 was analyzed by fluorescence (excitation/emission: 493/516 nm) and western blotting with Ni-HRP.

[7] = biological target: T6, cellular STAT3 in MDA-MB-468 cells (Homo sapiens, UniProt P40763); assay: Pull-down assay using Bio-BENDA, anti-STAT3 immunoprecipitation; assay type: cell-based; conditions: 50 μM Bio-BENDA plus excess free drug, 4 h
T6 construct: endogenous in cells; host or cells: MDA-MB-468
T6 sequence (P40763 2-770 limits assumed): as the sequence (P40763 2-770 limits assumed) above
Description: MDA-MB-468 cells were treated with biotinylated BENDA (Bio-BENDA) in the presence or absence of an excess amount of free drugs for 4 h and then lysed in PhosphoSafe™ Extraction Reagent (Merck, Darmstadt, Germany). Lysate (200 μL) was precleared with a mixture of Protein G Plus/Protein A Agarose Suspension (EMD Millipore, Billerica, MA, USA) for 1 h at 4°C and protein A and G agarose were removed by centrifugation at 13,000 rpm for 10 min. The lysate (200 μL) was immunoprecipitated with STAT3 antibody (1 μL) overnight at 4°C on a shaker and the immunocomplex was captured by the addition of a Protein G Plus/Protein A Agarose Suspension (30 μL) slurry for 1 h at 4°C. Samples were washed five times with lysis buffer and then boiled four times in SDS-PAGE sample buffer and run on an SDS-PAGE gel. The protein was transferred to a nitrocellulose membrane. The membranes were blocked in 5% skim milk in TBS/0.1% Tween 20. They were then incubated with streptavidin-HRP diluted at 1:2000 in 1.5% skim milk in TBS (pH7.4)/0.1% Tween 20 overnight at 4°C. Immunoblots were developed by using a chemiluminescent substrate.

T1 sequence (P40763 whole entry): as the sequence (P40763 whole entry, the tested form may be a part) above

Cn1c(CCCC(=O)O)nc2cc(N(CCO)CCO)ccc21 [HP2, dihydroxy bendamustine]
Effect on FRET signals (STAT3 dimerization) [1]: unchanged | Inhibition of proliferation of MDA-MB-453 cells [2]: did not inhibit proliferation | Inhibition of proliferation of MDA-MB-468 cells [3]: did not inhibit proliferation | pIC50 [4]: < 4.00 | Inhibition of STAT3 binding to oligonucleotides containing STAT3 consensus binding site [5]: did not | Amplified c-myc promoter band in STAT3 ChIP [6]: clearly detected | Effect on fluorescence intensity of Alexa-labeled rhSTAT3 (rhSTAT3): hardly observed | Competition of Bio-BENDA STAT3 band intensity by excess free drug [7]: no reduction
